# Ends that are not written are not given here.
# How the values were obtained:
# [1] = system: small intestinal crypts; test: Surviving small intestinal crypts after 13Gy total body X-irradiation; type: in vivo, mice; conditions: analyzed four days following irradiation
# Method: Twenty four 8-10 week old C57/B6 male mice randomized into three groups of each eight animals. Animals received PP[2-36] (0.1 mg/kg) s.c. twice daily for three days either prior or post radiation. Controls received vehicle both prior and post radiation.
# Group 1 (pretreatment): PP[2-36] (0.1 mg/kg) twice daily on day −3, −2, −1; radiation on day 0; vehicle on day 0, +1, +2, +3. Group 2 (post treatment): Vehicle twice daily on day −3, −2, −1; radiation on day 0; PP[2-36] (0.1 mg/kg twice daily on day 0, +1, +2, +3. Group 3 (control): Vehicle twice daily on day −3, −2, −1; radiation on day 0; vehicle twice daily on day 0, +1, +2, +3. All animals were irradiated (day 0) to a single dose of 13Gy total body X-irradiation. Irradiation was performed using a Pantak HF320 X-ray set (Agfa NDT Ltd, Reading, UK). The machine was operated at 300 kV, 10 mA. The X-ray tube was fitted with additional filtration to give a radiation quality of 2.3 mm Cu half-value layer (HVL). Mice were restrained in a jig, positioned at a distance of 700 mm from the focus of the X-ray tube. Irradiation was delivered at a dose rate of 75.5 cGy/min. […] For each animal ten intestinal circumferences were analyzed—a circumference is equivalent to a given length of intestine and therefore a convenient baseline unit of length. The number of surviving crypts per circumference was scored and the average per group determined. […]
# [2] = system: small intestinal crypt cells; test: Intestinal crypt cell proliferation (BrdU incorporation, cell positional scoring); type: in vivo, mice; conditions: 12 hours after dose
# Method: 3 Groups of 8 male 8-10 weeks old C57/B6 mice were treated with group 1: Vehicle, group 2:PP(2-36) 0,1 mg/kg single injection s.c., group 3: PP(2-36) 1,0 mg/kg single injection s.c. Animals were euthanized 12 hours following the single injection of either dose. Vehicle was used as control. Prior to euthanasia all animals were given BrdU (Bromodeoxyuridine) i.p.—a marker for cell proliferation. The small intestine and colon were then removed and fixed in Carnoy's solution. From the Carnoy's fixed small intestinal material, paraffin blocks were generated and sectioned. Slides were immunolabelled to reveal the BrdU incorporation and analyzed on a cell positional basis (i.e. location of the individual cell in the hierarchy of cells in the crypt) to identify any induced proliferative changes (BrdU incorporation and mitotic counts). Fifty half crypts per mouse were scored on a cell positional basis, generating 400 frequency scores per group of 8 animals from which the means were generated and effects analyzed.
substance,measurement,setting,value
hPP2-36 (PLEPVYPGDNATPEQMAQYAADLRRYINMLTRPRY-NH2; listed as Homo sapiens) [PP[2-36]],increase in number of surviving crypts compared to vehicle control,"[1]; post treatment 0.1 mg/kg s.c. twice daily for four days post irradiation, non-significant p>0.05",47%
same,increase in number of surviving intestine crypts compared to vehicle control,"[1]; pretreatment 0.1 mg/kg s.c. twice daily for three days prior irradiation, p<0.05",two
same,level of proliferation in the small intestinal crypts,"[2]; 0,1 mg/kg single injection s.c.",increased proliferation at cell positions 6-13
same,level of proliferation in the small intestinal crypts,[2]; 1 mg/kg single injection s.c.,stimulation was evident throughout the proliferative zone

# Source: patent publication US20110251126A1, “INTESTINAL TREATMENT” (priority 2008, published 2011)
